In patent publication US20120196899A1, “METHODS AND PRODUCTS FOR TREATING INFLAMMATION” (Rock Creek Pharmaceuticals, Inc., priority 2010, published 2012):
Values joined by “and” are separate entries in the source; they are usually repeats but may differ in a detail not shown here. Equal entries are not always repeated.

Legend:
nAChR α4/β2 = target: T1, nAChR α4/β2 (Homo sapiens, UniProt P17787+P43681); test: nAChR α4/β2 positive allosteric modulator assay (FLIPR); assay type: cell-based; details: with 10 μM Ach (= 0%), 10 μM Ach + epibatidine = 100%
T1 construct: host or cells: HEK293 cells, transient transfection
T1 sequence (P17787 26-502): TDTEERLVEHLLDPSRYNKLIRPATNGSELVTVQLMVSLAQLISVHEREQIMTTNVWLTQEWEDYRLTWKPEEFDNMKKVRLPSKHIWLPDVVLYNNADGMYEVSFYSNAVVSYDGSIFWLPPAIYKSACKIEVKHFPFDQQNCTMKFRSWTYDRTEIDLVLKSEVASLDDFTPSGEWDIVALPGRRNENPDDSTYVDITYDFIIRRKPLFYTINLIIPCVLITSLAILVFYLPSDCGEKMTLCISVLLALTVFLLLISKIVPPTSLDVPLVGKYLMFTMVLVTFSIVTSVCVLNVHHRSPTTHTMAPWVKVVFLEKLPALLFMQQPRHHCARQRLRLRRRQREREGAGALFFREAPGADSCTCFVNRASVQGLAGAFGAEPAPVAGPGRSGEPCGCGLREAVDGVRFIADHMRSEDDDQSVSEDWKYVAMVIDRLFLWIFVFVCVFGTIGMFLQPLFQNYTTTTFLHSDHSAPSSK
T1 sequence (P43681 29-627): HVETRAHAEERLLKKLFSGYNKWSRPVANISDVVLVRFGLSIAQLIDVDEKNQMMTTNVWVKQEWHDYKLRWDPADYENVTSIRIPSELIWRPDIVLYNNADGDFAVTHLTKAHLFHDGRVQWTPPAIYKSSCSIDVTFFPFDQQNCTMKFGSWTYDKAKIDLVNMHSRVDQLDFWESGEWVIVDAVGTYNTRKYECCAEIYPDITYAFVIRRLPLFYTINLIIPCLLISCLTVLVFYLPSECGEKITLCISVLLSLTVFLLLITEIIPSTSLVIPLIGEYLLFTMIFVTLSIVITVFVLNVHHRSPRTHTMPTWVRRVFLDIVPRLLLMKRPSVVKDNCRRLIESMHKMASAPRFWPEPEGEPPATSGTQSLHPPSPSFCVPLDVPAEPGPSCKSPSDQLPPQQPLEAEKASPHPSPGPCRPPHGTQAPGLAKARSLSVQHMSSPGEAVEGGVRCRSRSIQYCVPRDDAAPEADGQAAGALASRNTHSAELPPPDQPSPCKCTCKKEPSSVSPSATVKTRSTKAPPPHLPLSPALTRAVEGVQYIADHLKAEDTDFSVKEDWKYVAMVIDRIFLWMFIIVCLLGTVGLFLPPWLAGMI
Description: The following three (3) channels were evaluated: • 1. nAChR α3/β4 (encoded by the human CHRNA3 and CHRNB4 gene and stably expressed in CHO cells); • 2. nAChR α4/β2 (CHRNA4 and CHRNB2 gene and transiently expressed in HEK293 cells); and • 3. nAChR α7 (encoded by the human nicotinic α7 gene coexpressed in CHO cells with the chaperone RIC-3 encoded by the human RIC3 gene).
The ability of each test article to act as an agonist, a positive allosteric modulator or antagonist of three nAChR receptor channels was evaluated in the presence of 0.1 atropine. Both test articles were evaluated for responses on each nAChR channel at eight (8) concentrations: 0.3, 1, 3, 10, 30, 100, 300, and 1000 μM (n=4 for each concentration).
HEK293 or CHO cells were transiently or stably transfected with the appropriate human ion channel cDNAs. Stable transfectants were selected by coexpression with the antibiotic-resistance gene(s) incorporated into the expression plasmid(s). Selection pressure was maintained by including selection antibiotics in the culture medium. HEK293 cells were cultured in Dulbecco's Modified Eagle Medium/Nutrient Mixture F-12 (D-MEM/F-12) supplemented with 10% fetal bovine serum, 100 U/mL penicillin G sodium, 100 g/mL streptomycin sulfate and appropriate selection antibiotics. CHO cells were cultured in Ham's F-12 supplemented with 10% fetal bovine serum, 100 U/mL penicillin G sodium, 100 g/mL streptomycin sulfate and appropriate selection antibiotics.
For FLIPR TETRA™ assay, cells were plated in 384-well black wall, flat clear bottom microtiter plates (Type: BD Biocoat Poly-D-Lysine Multiwell Cell Culture Plate) at 20,000 to 30,000 cells per well (384-well plate). Cells were incubated at 37° C. overnight or until the cells reached a sufficient density in the wells (near confluent monolayer) to use in fluorescence assays. For α4β2 assay, cells were incubated at 27° C. for at least 7 hours before use.
Experiments were performed with either the FLIPR calcium sensitive dye kit (Fluo-8, ABDbioquest, for nAChR α3/β4 and nAChR α7) or FLIPR membrane potential kit (Molecular Devices, for nAChR α4/β2) according to the manufacturer's instructions. Briefly, cells were incubated with 201 dye for 30 min at 37° C. After dye loading period, for the agonist assay, 5 μl of the test, vehicle, or control articles at concentration of 5 times of final concentration were applied to the cells without stimulation. For the positive allosteric modulation (PAM) and antagonist assay, after test article application, the cells were stimulated with either low dose (for PAM) or high dose (for antagonist) of Ach.
The signal elicited in the presence of the positive control agonist and allosteric modulator epibatidine (10 μM Ach+3 μM epibatidine) was set to 100% and the signal from the agonist control (10 μM Ach) was set to 0%.

HEK293 = test: LDH cytotoxicity assay on supernatants of the treated cells; assay type: cell-based, Human
Description: Cytotoxicity assays using the supernatants from the treated cells were conducted using an LDH Cytotoxicity Detection Kit (Roche) according to the manufacturer's instructions.

[1] = Clinical chemistry, day 15; assay type: in vivo, Sprague-Dawley rats
Description: On day 15, urine was collected on all surviving animals for urinalysis. The animals were euthanized and bled via cardiac puncture. Blood was collected for hematology, clinical chemistry, and coagulation analysis. Tissues were collected, weighed, and stored in 10% neutral-buffered formalin for possible future analysis.

[2] = system: BACE-1 protein expression; test: BACE-1 protein expression in SHSY cells (Western blot); assay type: cell-based, human; details: 24 hours, corrected for actin
[3] = system: Experimental Autoimmune Thyroiditis; test: Experimental Autoimmune Thyroiditis (Example 16A): lymphoid typing by flow cytometry; assay type: in vivo, mice; details: p=0.0143
Description: Thyroiditis was induced by injection of thyroglobulin emulsified in complete Freund's adjuvant (CFA). On days 0 and 7, female mice received subcutaneous injection of 100 μg thyroglobulin (2 injections of 50 μg each). Control mice drank water. […] Mice were sacrificed on day 21.
Lymphoid typing. Cervical lymph nodes were removed for lymphoid typing by flow cytometry. Spleen and peritoneal macrophages were removed for ex vivo stimulation.

[4] = anatabine 0.1 mg/kg, female rats, individual animals
[5] = anatabine 0.1 mg/kg, male rats, individual animals
[6] = anatabine 0.75 mg/kg, female rats, individual animals
[7] = anatabine 0.75 mg/kg, male rats, individual animals

## C1=CCC(c2cccnc2)NC1 (racemic) [Anatabine (racemate)]
nAChR α4/β2; test conc 0.3 μM
  Normalized % Potentiation: −18.94%
nAChR α4/β2; test conc 1 μM
  Normalized % Potentiation: −27.03%
nAChR α4/β2; test conc 3 μM
  Normalized % Potentiation: −35.59%
nAChR α4/β2; test conc 10 μM
  Normalized % Potentiation: −42.34%
nAChR α4/β2; test conc 30 μM
  Normalized % Potentiation: −39.48%
nAChR α4/β2; test conc 100 μM
  Normalized % Potentiation: −38.34%
nAChR α4/β2; test conc 300 μM
  Normalized % Potentiation: −41.07%
nAChR α4/β2; test conc 1000 μM
  Normalized % Potentiation: −35.30%

## C1=CCC(c2cccnc2)NC1 (racemic) [Anatabine, 1,2,3,6-tetrahydro-[2,3′]bipyridinyl]
HEK293
  cytotoxicity (LDH release): without cellular toxicity
[1]; Mean, F, 0.1 mg/kg
  CHLORIDE: 100.20 mEq/L
  CHOLESTEROL: 76.40 mg/dL
  CREATININE: 0.44 mg/dL
  GLUCOSE: 207.60 mg/dL
  PHOSPHORUS: 8.08 mg/dL
  POTASSIUM: 5.82 mEq/L
  SODIUM: 146.80 mEq/L
[1]; Mean, F, 0.75 mg/kg
  CHLORIDE: 98.00 mEq/L
  CHOLESTEROL: 69.80 mg/dL
  CREATININE: 0.44 mg/dL
  GLUCOSE: 220.80 mg/dL
  PHOSPHORUS: 8.64 mg/dL
  POTASSIUM: 5.88 mEq/L
  SODIUM: 145.00 mEq/L
[1]; Mean, M, 0.1 mg/kg
  CHLORIDE: 98.00 mEq/L
  CHOLESTEROL: 67.20 mg/dL
  CREATININE: 0.36 mg/dL
  PHOSPHORUS: 10.82 mg/dL
  POTASSIUM: 6.40 mEq/L
  SODIUM: 146.20 mEq/L
[1]; Mean, M, 0.75 mg/kg
  CHLORIDE: 98.60 mEq/L
  CHOLESTEROL: 62.80 mg/dL
  CREATININE: 0.36 mg/dL
  GLUCOSE: 202.00 mg/dL
  PHOSPHORUS: 10.92 mg/dL
  POTASSIUM: 6.12 mEq/L
  SODIUM: 147.80 mEq/L
[1]; [4]
  ALBUMIN: 3.6 g/dL (3×) and 3.5 g/dL and 3.8 g/dL
  ALK PHOSPHATASE: 261 IU/L and 140 IU/L and 209 IU/L and 412 IU/L and 220 IU/L
  ALT: 57 IU/L and 43 IU/L and 47 IU/L and 62 IU/L and 39 IU/L
  AST: 78 IU/L and 69 IU/L and 70 IU/L and 86 IU/L and 82 IU/L
  BUN: 21 mg/dL (2×) and 19 mg/dL (3×)
  CHLORIDE: 99 mEq/L and 102 mEq/L (2×) and 97 mEq/L and 101 mEq/L
  CHOLESTEROL: 90 mg/dL and 74 mg/dL and 65 mg/dL and 66 mg/dL and 87 mg/dL
  CREATININE: 0.4 mg/dL (3×) and 0.5 mg/dL (2×)
  DIR BILIRUBIN: 0 mg/dL
  GLOBULIN: 3.1 g/dL (3×) and 3 g/dL
  GLUCOSE: 224 mg/dL and 170 mg/dL and 227 mg/dL and 220 mg/dL and 197 mg/dL
  PHOSPHORUS: 8.5 mg/dL (2×) and 8.2 mg/dL and 7.4 mg/dL and 7.8 mg/dL
  POTASSIUM: 5.4 mEq/L and 6.3 mEq/L and 5.2 mEq/L and 5.5 mEq/L and 6.7 mEq/L
  SODIUM: 147 mEq/L and 145 mEq/L
  TOT BILIRUBIN: 0 mg/dL
  TOT PROTEIN: 6.7 g/dL (2×) and 6.3 g/dL and 6.9 g/dL and 6.6 g/dL
[1]; [5]
  ALBUMIN: 3.4 g/dL (2×) and 3.2 g/dL and 3.1 g/dL (2×)
  ALK PHOSPHATASE: 470 IU/L and 227 IU/L and 364 IU/L and 358 IU/L and 618 IU/L
  ALT: 92 IU/L and 65 IU/L and 74 IU/L and 44 IU/L and 78 IU/L
  AST: 97 IU/L and 99 IU/L and 93 IU/L and 85 IU/L and 106 IU/L
  BUN: 18 mg/dL (2×) and 21 mg/dL and 14 mg/dL and 19 mg/dL
  CHLORIDE: 98 mEq/L and 97 mEq/L (2×) and 99 mEq/L (2×)
  CHOLESTEROL: 65 mg/dL and 64 mg/dL and 75 mg/dL and 56 mg/dL and 76 mg/dL
  CREATININE: 0.4 mg/dL (3×) and 0.3 mg/dL (2×)
  DIR BILIRUBIN: 0 mg/dL
  GLOBULIN: 2.9 g/dL (2×) and 2.6 g/dL and 3.1 g/dL
  GLUCOSE: 258 mg/dL and 214 mg/dL and 194 mg/dL and 210 mg/dL
  PHOSPHORUS: 10.3 mg/dL (2×) and 10.8 mg/dL
  POTASSIUM: 5.9 mEq/L and 6.5 mEq/L and 6.6 mEq/L and 6.9 mEq/L and 6.1 mEq/L
  SODIUM: 144 mEq/L and 147 mEq/L
  TOT BILIRUBIN: 0 mg/dL
  TOT PROTEIN: 6.3 g/dL (2×) and 5.8 g/dL and 5.9 g/dL and 6.2 g/dL
[1]; [6]
  ALBUMIN: 3.5 g/dL (2×) and 3.6 g/dL (2×) and 3.4 g/dL
  ALK PHOSPHATASE: 123 IU/L and 142 IU/L and 235 IU/L and 130 IU/L and 160 IU/L
  ALT: 63 IU/L and 49 IU/L (2×) and 55 IU/L and 57 IU/L
  AST: 95 IU/L and 69 IU/L and 76 IU/L and 54 IU/L and 72 IU/L
  BUN: 15 mg/dL (3×) and 16 mg/dL (2×)
  CHLORIDE: 97 mEq/L (2×) and 96 mEq/L and 99 mEq/L and 101 mEq/L
  CHOLESTEROL: 66 mg/dL and 64 mg/dL and 63 mg/dL and 69 mg/dL and 87 mg/dL
  CREATININE: 0.5 mg/dL (2×) and 0.4 mg/dL (3×)
  DIR BILIRUBIN: 0 mg/dL
  GLOBULIN: 2.7 g/dL and 3 g/dL (2×)
  GLUCOSE: 237 mg/dL and 247 mg/dL and 217 mg/dL
  PHOSPHORUS: 9.7 mg/dL and 7.7 mg/dL and 9.6 mg/dL and 9.2 mg/dL and 7 mg/dL
  POTASSIUM: 5.5 mEq/L and 5.9 mEq/L and 6 mEq/L and 5.7 mEq/L and 6.3 mEq/L
  SODIUM: 145 mEq/L (2×) and 144 mEq/L (2×) and 147 mEq/L
  TOT BILIRUBIN: 0 mg/dL
  TOT PROTEIN: 6.3 g/dL (2×) and 6.2 g/dL and 6.6 g/dL and 6.5 g/dL
[1]; [7]
  ALBUMIN: 3.4 g/dL (2×) and 3.1 g/dL and 3.2 g/dL and 3.3 g/dL
  ALK PHOSPHATASE: 479 IU/L and 297 IU/L and 325 IU/L and 337 IU/L and 416 IU/L
  ALT: 75 IU/L and 57 IU/L and 65 IU/L and 50 IU/L and 87 IU/L
  AST: 103 IU/L and 66 IU/L and 97 IU/L and 90 IU/L and 92 IU/L
  BUN: 15 mg/dL and 18 mg/dL and 12 mg/dL and 17 mg/dL and 21 mg/dL
  CHLORIDE: 98 mEq/L and 99 mEq/L (2×) and 100 mEq/L and 97 mEq/L
  CHOLESTEROL: 69 mg/dL (2×) and 60 mg/dL and 54 mg/dL and 62 mg/dL
  CREATININE: 0.4 mg/dL (3×) and 0.3 mg/dL (2×)
  DIR BILIRUBIN: 0 mg/dL (4×) and 0.1 mg/dL
  GLOBULIN: 2.6 g/dL and 2.7 g/dL and 2.9 g/dL
  GLUCOSE: 222 mg/dL and 160 mg/dL and 198 mg/dL
  PHOSPHORUS: 11 mg/dL and 10.7 mg/dL and 10 mg/dL and 10.6 mg/dL
  POTASSIUM: 6.3 mEq/L (2×) and 5.4 mEq/L and 6 mEq/L and 6.6 mEq/L
  SODIUM: 147 mEq/L and 150 mEq/L
  TOT BILIRUBIN: 0 mg/dL (4×) and 0.1 mg/dL
  TOT PROTEIN: 6.2 g/dL and 5.7 g/dL and 5.9 g/dL and 6.1 g/dL and 6.3 g/dL
[1]; anatabine: males 0.75 and […], females 0.1 and 0.75 mg/kg
  albumin levels: slight increases in albumin levels
[1]; female, 0.1 mg/kg, group mean
  ALBUMIN: 3.62 g/dL
  ALK PHOSPHATASE: 248.40 IU/L
  ALT: 49.60 IU/L
  AST: 77.00 IU/L
  DIR BILIRUBIN: 0.00 mg/dL
  GLOBULIN: 3.02 g/dL
  TOT BILIRUBIN: 0.00 mg/dL
  TOT PROTEIN: 6.64 g/dL
[1]; female, 0.75 mg/kg, group mean
  ALBUMIN: 3.52 g/dL
  ALK PHOSPHATASE: 158.00 IU/L
  ALT: 54.60 IU/L
  AST: 73.20 IU/L
  BUN: 15.40 mg/dL
  DIR BILIRUBIN: 0.00 mg/dL
  GLOBULIN: 2.86 g/dL
  TOT BILIRUBIN: 0.00 mg/dL
  TOT PROTEIN: 6.38 g/dL
[1]; male, 0.1 mg/kg, group mean
  ALBUMIN: 3.24 g/dL
  ALK PHOSPHATASE: 407.40 IU/L
  ALT: 70.60 IU/L
  AST: 96.00 IU/L
  BUN: 18.00 mg/dL
  DIR BILIRUBIN: 0.00 mg/dL
  GLOBULIN: 2.86 g/dL
  TOT BILIRUBIN: 0.00 mg/dL
  TOT PROTEIN: 6.10 g/dL
[1]; male, 0.75 mg/kg, group mean
  ALBUMIN: 3.28 g/dL
  ALK PHOSPHATASE: 370.80 IU/L
  ALT: 66.80 IU/L
  AST: 89.60 IU/L
  DIR BILIRUBIN: 0.02 mg/dL
  TOT BILIRUBIN: 0.02 mg/dL
  TOT PROTEIN: 6.04 g/dL
[1]; males, all anatabine dose levels, nicotine 0.75 mg/kg
  globulins: marginally higher
[2]
  BACE-1 protein expression: reduced BACE expression
[3]; cervical lymph nodes
  activated T cells: fewer activated T cells
  regulatory T cells: more regulatory T cells
[3]
  ability to present antigens: a lower ability to present antigens
